# ChEMBL document CHEMBL4715724, “Novel 5-substituted-2-anilinoquinolines with 3-(morpholino or 4-methylpiperazin-1-yl)propoxy moiety as broad spectrum antiproliferative agents: Synthesis, cell based assays and kinase screening” (Bioorg Med Chem Lett, 2016)
# Legend:
# SF-295 = assay: cells; format: functional; conditions: Homo sapiens, time 48 hrs
# Description: Growth inhibition of human SF-295 cells incubated for 48 hrs by sulforhodamine B assay
# HT-29 = assay: cells; format: functional; conditions: Homo sapiens, time 48 hrs
# Description: Growth inhibition of human HT-29 cells incubated for 48 hrs by sulforhodamine B assay
# SK-MEL-28 [1] = assay: cells; format: functional; conditions: Homo sapiens, time 48 hrs
# Description: Growth inhibition of human SK-MEL-28 cells incubated for 48 hrs by sulforhodamine B assay
# OVCAR-3 = assay: cells; format: functional; conditions: Homo sapiens, time 48 hrs
# Description: Growth inhibition of human OVCAR-3 cells incubated for 48 hrs by sulforhodamine B assay
# UACC-257 = assay: cells; format: functional; conditions: Homo sapiens, time 48 hrs
# Description: Growth inhibition of human UACC-257 cells incubated for 48 hrs by sulforhodamine B assay
# [2] = system: Panel breast (Carcinoma cell lines); assay: cells; format: functional; conditions: Homo sapiens, time 48 hrs; for CC50: read-out: LC50 (the source's name)
# Description: Growth inhibition of human Panel breast (Carcinoma cell lines) incubated for 48 hrs by sulforhodamine B assay
# [3] = system: Panel colon (Carcinoma cell lines); assay: cells; format: functional; conditions: Homo sapiens, time 48 hrs; for CC50: read-out: LC50 (the source's name)
# Description: Growth inhibition of human Panel colon (Carcinoma cell lines) incubated for 48 hrs by sulforhodamine B assay
# IGROV-1 = assay: cells; format: functional; conditions: Homo sapiens, time 48 hrs
# Description: Growth inhibition of human IGROV-1 cells incubated for 48 hrs by sulforhodamine B assay
# cells = format: functional; conditions: Homo sapiens, Non-small cell lung cancer cell line; time 48 hrs
# Description: Growth inhibition of human Non-small cell lung cancer cell line incubated for 48 hrs by sulforhodamine B assay
# HCT-116 = assay: cells; format: functional; conditions: Homo sapiens, time 48 hrs
# Description: Growth inhibition of human HCT-116 cells incubated for 48 hrs by sulforhodamine B assay
# [4] = Cytotoxicity against human HFF-1 cells assessed as cell growth inhibition by MTT assay; format: cell-based
# NCI-H23 = assay: cells; format: functional; conditions: Homo sapiens, time 48 hrs
# Description: Growth inhibition of human NCI-H23 cells incubated for 48 hrs by sulforhodamine B assay
# NCI-H322M = assay: cells; format: functional; conditions: Homo sapiens, time 48 hrs
# Description: Growth inhibition of human NCI-H322M cells incubated for 48 hrs by sulforhodamine B assay
# MCF7 = assay: cells; format: functional; conditions: Homo sapiens, time 48 hrs
# Description: Growth inhibition of human MCF7 cells incubated for 48 hrs by sulforhodamine B assay
# [5] = system: Panel prostate (Carcinoma cell lines); assay: cells; format: functional; conditions: Homo sapiens, time 48 hrs
# Description: Growth inhibition of human Panel prostate (Carcinoma cell lines) incubated for 48 hrs by sulforhodamine B assay
# [6] = system: Panel ovarian (Carcinoma cell lines); assay: cells; format: functional; conditions: Homo sapiens, time 48 hrs
# Description: Growth inhibition of human Panel ovarian (Carcinoma cell lines) incubated for 48 hrs by sulforhodamine B assay
# [7] = system: Panel melanoma (Carcinoma cell lines); assay: cells; format: functional; conditions: Homo sapiens, time 48 hrs
# Description: Growth inhibition of human Panel melanoma (Carcinoma cell lines) incubated for 48 hrs by sulforhodamine B assay
# K562 = assay: cells; format: functional; conditions: Homo sapiens, time 48 hrs
# Description: Growth inhibition of human K562 cells incubated for 48 hrs by sulforhodamine B assay
# TK-10 = assay: cells; format: functional; conditions: Homo sapiens, time 48 hrs
# Description: Growth inhibition of human TK-10 cells incubated for 48 hrs by sulforhodamine B assay
# [8] = system: Panel leukemia (Carcinoma cell lines); assay: cells; format: functional; conditions: Homo sapiens, time 48 hrs
# Description: Growth inhibition of human Panel leukemia (Carcinoma cell lines) incubated for 48 hrs by sulforhodamine B assay
# SNB-75 = assay: cells; format: functional; conditions: Homo sapiens, time 48 hrs
# Description: Growth inhibition of human SNB-75 cells incubated for 48 hrs by sulforhodamine B assay
# LOX IMVI = assay: cells; format: functional; conditions: Homo sapiens, time 48 hrs
# Description: Growth inhibition of human LOX IMVI cells incubated for 48 hrs by sulforhodamine B assay
# U-251 = assay: cells; format: functional; conditions: Homo sapiens, time 48 hrs
# Description: Growth inhibition of human U-251 cells incubated for 48 hrs by sulforhodamine B assay
# UACC-62 = assay: cells; format: functional; conditions: Homo sapiens, time 48 hrs
# Description: Growth inhibition of human UACC-62 cells incubated for 48 hrs by sulforhodamine B assay
# HOP-92 = assay: cells; format: functional; conditions: Homo sapiens, time 48 hrs
# Description: Growth inhibition of human HOP-92 cells incubated for 48 hrs by sulforhodamine B assay
# PC-3 = assay: cells; format: functional; conditions: Homo sapiens, time 48 hrs
# Description: Growth inhibition of human PC-3 cells incubated for 48 hrs by sulforhodamine B assay
# CCRF-CEM = assay: cells; format: functional; conditions: Homo sapiens, time 48 hrs
# Description: Growth inhibition of human CCRF-CEM cells incubated for 48 hrs by sulforhodamine B assay
# UO-31 = assay: cells; format: functional; conditions: Homo sapiens, time 48 hrs
# Description: Growth inhibition of human UO-31 cells incubated for 48 hrs by sulforhodamine B assay
# OVCAR-8 = assay: cells; format: functional; conditions: Homo sapiens, time 48 hrs
# Description: Growth inhibition of human OVCAR-8 cells incubated for 48 hrs by sulforhodamine B assay
# MDA-MB-468 = assay: cells; format: functional; conditions: Homo sapiens, time 48 hrs
# Description: Growth inhibition of human MDA-MB-468 cells incubated for 48 hrs by sulforhodamine B assay
# Hs-578T = assay: cells; format: functional; conditions: Homo sapiens, time 48 hrs
# Description: Growth inhibition of human Hs-578T cells incubated for 48 hrs by sulforhodamine B assay
# [9] = Cytotoxicity against human HFF-1 cells assessed as cell growth inhibition at 1 uM by MTT assay relative to control; format: cell-based; conditions: read-out: GI
# [10] = system: Panel renal (Carcinoma cell lines); assay: cells; format: functional; conditions: Homo sapiens, time 48 hrs
# Description: Growth inhibition of human Panel renal (Carcinoma cell lines) incubated for 48 hrs by sulforhodamine B assay
# RXF 393 = assay: cells; format: functional; conditions: Homo sapiens, time 48 hrs
# Description: Growth inhibition of human RXF 393 cells incubated for 48 hrs by sulforhodamine B assay
# A498 = assay: cells; format: functional; conditions: Homo sapiens, time 48 hrs
# Description: Growth inhibition of human A498 cells incubated for 48 hrs by sulforhodamine B assay
# [11] = system: Panel NCI-60 (60 carcinoma cell lines); assay: cells; format: functional; conditions: Homo sapiens, time 48 hrs; for CC50: read-out: LC50 (the source's name)
# Description: Growth inhibition of human Panel NCI-60 (60 carcinoma cell lines) incubated for 48 hrs by sulforhodamine B assay
# KM12 = assay: cells; format: functional; conditions: Homo sapiens, time 48 hrs
# Description: Growth inhibition of human KM12 cells incubated for 48 hrs by sulforhodamine B assay
# NCI-H226 = assay: cells; format: functional; conditions: Homo sapiens, time 48 hrs
# Description: Growth inhibition of human NCI-H226 cells incubated for 48 hrs by sulforhodamine B assay
# [12] = system: Panel CNS (Carcinoma cell lines); assay: cells; format: functional; conditions: Homo sapiens, time 48 hrs; for CC50: read-out: LC50 (the source's name)
# Description: Growth inhibition of human Panel CNS (Carcinoma cell lines) incubated for 48 hrs by sulforhodamine B assay
# OVCAR-4 = assay: cells; format: functional; conditions: Homo sapiens, time 48 hrs
# Description: Growth inhibition of human OVCAR-4 cells incubated for 48 hrs by sulforhodamine B assay
# HOP-62 = assay: cells; format: functional; conditions: Homo sapiens, time 48 hrs
# Description: Growth inhibition of human HOP-62 cells incubated for 48 hrs by sulforhodamine B assay
# HCT-15 = assay: cells; format: functional; conditions: Homo sapiens, time 48 hrs
# Description: Growth inhibition of human HCT-15 cells incubated for 48 hrs by sulforhodamine B assay
# SK-MEL-28 [13] = assay: Growth inhibition of human SK-MEL-28 cells assessed as growth percentage at 10 uM measured after 48 hrs by sulforhodamine B assay relative to control; format: functional; conditions: read-out: Activity
# [14] = Cytotoxicity against human HFF-1 cells assessed as cell growth inhibition at 0.1 uM by MTT assay relative to control; format: cell-based; conditions: read-out: GI
# NCI-H522 = assay: cells; format: functional; conditions: Homo sapiens, time 48 hrs
# Description: Growth inhibition of human NCI-H522 cells incubated for 48 hrs by sulforhodamine B assay
# NCI-H460 = assay: cells; format: functional; conditions: Homo sapiens, time 48 hrs
# Description: Growth inhibition of human NCI-H460 cells incubated for 48 hrs by sulforhodamine B assay
# A549 = assay: cells; format: functional; conditions: Homo sapiens, time 48 hrs
# Description: Growth inhibition of human A549/ATCC cells incubated for 48 hrs by sulforhodamine B assay
# SR = assay: cells; format: functional; conditions: Homo sapiens, time 48 hrs
# Description: Growth inhibition of human SR cells incubated for 48 hrs by sulforhodamine B assay
# [15] = Cytotoxicity against human HFF-1 cells assessed as cell growth inhibition at 10 uM by MTT assay relative to control; format: cell-based; conditions: read-out: GI
# 786-0 = assay: Growth inhibition of human 786-0 cells assessed as growth percentage at 10 uM measured after 48 hrs by sulforhodamine B assay relative to control; format: functional; conditions: read-out: Activity
# MDA-MB-231 = assay: cells; format: functional; conditions: Homo sapiens, time 48 hrs
# Description: Growth inhibition of human MDA-MB-231/ATCC cells incubated for 48 hrs by sulforhodamine B assay
# COLO 205 = assay: Growth inhibition of human COLO 205 cells assessed as growth percentage at 10 uM measured after 48 hrs by sulforhodamine B assay relative to control; format: functional; conditions: read-out: Activity
# SK-MEL-5 = assay: Growth inhibition of human SK-MEL-5 cells assessed as growth percentage at 10 uM measured after 48 hrs by sulforhodamine B assay relative to control; format: functional; conditions: read-out: Activity
smiles,measurement,setting,value
CN1CCN(CCCOc2cccc3nc(Nc4cccc(Cl)c4)ccc23)CC1,GI50,SF-295,1910 nM
same,GI50,HT-29,1500 nM
same,GI50,SK-MEL-28 [1],1650 nM
same,GI50,OVCAR-3,1450 nM
same,GI50,UACC-257,1810 nM
same,GI50,[2],1850 nM
same,TGI,[2],6690 nM
same,CC50,[2],20800 nM
same,GI50,[3],1640 nM
same,TGI,[3],3100 nM
same,CC50,[3],5870 nM
same,GI50,IGROV-1,2230 nM
same,GI50,cells,3730 nM
same,LC50 (50% lethal concentration),cells,23900 nM
same,TGI,cells,8650 nM
same,GI50,HCT-116,1550 nM
same,GI50,[4],> 10000 nM
same,GI50,NCI-H23,2270 nM
same,GI50,NCI-H322M,2670 nM
same,GI50,MCF7,1570 nM
same,GI50,[5],1900 nM
same,LC50 (concentration killing 50% of cells),[5],7020 nM
same,TGI,[5],3650 nM
same,GI50,[6],2010 nM
same,LC50,[6],11500 nM
same,TGI,[6],4310 nM
same,GI50,[7],1760 nM
same,LC50,[7],6450 nM
same,TGI,[7],3370 nM
same,GI50,K562,1790 nM
same,GI50,TK-10,1670 nM
same,GI50,[8],1990 nM
same,LC50 (50% lethal concentration),[8],38000 nM
same,TGI,[8],4650 nM
same,GI50,SNB-75,1380 nM
same,GI50,LOX IMVI,1680 nM
same,GI50,U-251,1890 nM
same,GI50,UACC-62,1910 nM
same,GI50,HOP-92,1650 nM
same,GI50,PC-3,1810 nM
same,GI50,CCRF-CEM,1680 nM
same,GI50,UO-31,1840 nM
same,GI50,OVCAR-8,1900 nM
same,GI50,MDA-MB-468,1610 nM
same,GI50,Hs-578T,1830 nM
same,inhibition at 1 µM,[9],12.2%
same,GI50,[10],1900 nM
same,LC50 (lethal concentration 50%),[10],17400 nM
same,TGI,[10],5370 nM
same,GI50,RXF 393,1850 nM
same,GI50,A498,1880 nM
same,GI50,[11],1910 nM
same,TGI,[11],4170 nM
same,CC50,[11],10700 nM
same,GI50,KM12,1780 nM
same,GI50,NCI-H226,1620 nM
same,GI50,[12],1890 nM
same,TGI,[12],4000 nM
same,CC50,[12],23300 nM
same,GI50,OVCAR-4,1940 nM
same,GI50,HOP-62,1720 nM
same,GI50,HCT-15,1580 nM
same,growth at 10 µM,SK-MEL-28 [13],35.5%
same,inhibition at 0.1 µM,[14],5.4%
same,GI50,NCI-H522,1480 nM
same,GI50,NCI-H460,1870 nM
same,GI50,A549,2020 nM
same,GI50,SR,2200 nM
same,inhibition at 10 µM,[15],22.4%
FC(F)(F)c1cc(Nc2ccc3c(OCCCN4CCOCC4)cccc3n2)ccc1Cl,GI50,SF-295,1890 nM
same,GI50,HT-29,1740 nM
same,GI50,SK-MEL-28 [1],1850 nM
same,GI50,OVCAR-3,2020 nM
same,GI50,[2],2210 nM
same,GI50,[3],1850 nM
same,GI50,IGROV-1,3960 nM
same,GI50,cells,2320 nM
same,GI50,HCT-116,2070 nM
same,GI50,NCI-H23,2000 nM
same,GI50,NCI-H322M,2520 nM
same,GI50,MCF7,1660 nM
same,GI50,[5],2520 nM
same,GI50,[6],3010 nM
same,GI50,[7],1950 nM
same,GI50,K562,2140 nM
same,growth at 10 µM,786-0,37.8%
same,GI50,TK-10,3490 nM
same,GI50,[8],1930 nM
same,GI50,SNB-75,1890 nM
same,GI50,LOX IMVI,1730 nM
same,GI50,U-251,1800 nM
same,GI50,UACC-62,2050 nM
same,GI50,HOP-92,1240 nM
same,GI50,PC-3,2260 nM
same,GI50,CCRF-CEM,1630 nM
same,GI50,UO-31,1630 nM
same,GI50,OVCAR-8,4330 nM
same,GI50,MDA-MB-468,2170 nM
same,GI50,Hs-578T,2970 nM
same,GI50,[10],2510 nM
same,GI50,RXF 393,1780 nM
same,GI50,A498,3120 nM
same,GI50,[11],2190 nM
same,GI50,KM12,2070 nM
same,GI50,NCI-H226,3540 nM
same,GI50,[12],1960 nM
same,GI50,OVCAR-4,3070 nM
same,GI50,HOP-62,1870 nM
same,GI50,HCT-15,1640 nM
same,GI50,NCI-H460,2750 nM
same,GI50,MDA-MB-231,1820 nM
same,GI50,SR,2140 nM
Fc1ccc(Nc2ccc3c(OCCCN4CCOCC4)cccc3n2)cc1F,growth at 10 µM,COLO 205,66.5%
CN1CCN(CCCOc2cccc3nc(Nc4ccc(F)c(F)c4)ccc23)CC1,GI50,SF-295,4640 nM
same,GI50,HT-29,620 nM
same,GI50,SK-MEL-28 [1],1080 nM
same,GI50,OVCAR-3,4580 nM
same,GI50,UACC-257,660 nM
same,GI50,[2],3140 nM
same,TGI,[2],7980 nM
same,CC50,[2],20300 nM
same,GI50,[3],2110 nM
same,TGI,[3],5900 nM
same,CC50,[3],12200 nM
same,GI50,IGROV-1,5550 nM
same,GI50,cells,3170 nM
same,LC50 (50% lethal concentration),cells,18900 nM
same,TGI,cells,7790 nM
same,GI50,HCT-116,3800 nM
same,GI50,NCI-H23,4670 nM
same,GI50,NCI-H322M,3930 nM
same,GI50,MCF7,3330 nM
same,GI50,[5],4070 nM
same,LC50 (concentration killing 50% of cells),[5],18000 nM
same,TGI,[5],8550 nM
same,growth at 10 µM,SK-MEL-5,-26.8%
same,GI50,[6],5130 nM
same,LC50,[6],20500 nM
same,TGI,[6],10800 nM
same,GI50,[7],1690 nM
same,LC50,[7],10500 nM
same,TGI,[7],4400 nM
same,GI50,K562,660 nM
same,GI50,TK-10,2630 nM
same,GI50,[8],2600 nM
same,LC50 (50% lethal concentration),[8],21100 nM
same,TGI,[8],7090 nM
same,GI50,SNB-75,3920 nM
same,GI50,LOX IMVI,1030 nM
same,GI50,U-251,2680 nM
same,GI50,UACC-62,700 nM
same,GI50,HOP-92,1430 nM
same,GI50,PC-3,3830 nM
same,GI50,CCRF-CEM,2420 nM
same,GI50,UO-31,4340 nM
same,GI50,OVCAR-8,5130 nM
same,GI50,MDA-MB-468,2110 nM
same,GI50,Hs-578T,4730 nM
same,GI50,[10],4160 nM
same,LC50 (lethal concentration 50%),[10],18900 nM
same,TGI,[10],8980 nM
same,GI50,RXF 393,2110 nM
same,GI50,A498,5660 nM
same,GI50,[11],2630 nM
same,TGI,[11],6760 nM
same,CC50,[11],16200 nM
same,GI50,KM12,2350 nM
same,GI50,NCI-H226,5510 nM
same,GI50,[12],4100 nM
same,TGI,[12],9090 nM
same,CC50,[12],16100 nM
same,GI50,OVCAR-4,6420 nM
same,GI50,HOP-62,1250 nM
same,GI50,HCT-15,960 nM
same,GI50,NCI-H522,1010 nM
same,GI50,NCI-H460,2370 nM
same,GI50,A549,3500 nM
same,GI50,MDA-MB-231,937 nM
same,GI50,SR,870 nM
